Series [1] can be described thus: localization of radioactivity (composition judged unacceptable). As to conditions: Sm-153; species not stated. Format: in vivo.
The nature of series [2]: biolocalization of the radionuclide in rats (tissue distribution after tail vein injection). It is filed as in vivo, male Sprague Dawley rats. As to conditions: Lu-177 (Ex. 14, 15; 5 rats) or Ho-166 (Ex. 16; 3 rats), two hour. On the procedure:
Studies to determine the qualitative biodistribution of the various radionuclides were conducted by injecting the compositions into rats and obtaining the gamma ray images of the entire animal at various times up to two hours after injection.
Laboratory rats were injected with the above complex (50-100 μl) via the tail vein. After 2 hours, the animals were sacrificed by cervical dislocation and organs and tissues removed. Samples were counted with a NaI counter to determine the biolocalization of the radionuclide.

In series [3] the test system is tumor. As to conditions: female Irish Wolfhound, possible osteosarcoma; 0.97 mCi/kg. On the procedure: An English Setter with a tumor in his pelvis was injected with approximately 19 mCi of a composition containing Sm-153-EDTMP. After 2 hours, the dog was imaged using a scintillation camera.
An Irish setter with undifferentiated sarcoma metastatic to bone was treated with 16 mCi (0.57 mCi/kg) of a composition containing Sm-153-EDTMP. […] After approximately 3 months, when signs of lameness began to reappear, the dog was given a second treatment of 15 mCi (0.49 mCi/kg), of a composition containing Sm-153-EDTMP.
A female Irish Wolfhound with a possible osteosarcoma on the left distal radius was injected with a composition containing ^166 Ho-EDTMP (0.97 mCi/kg).

The structures appear in SMILES notation.

Consider 2 molecules from patent US5300279A, “Organic amine phosphonic acid complexes for the treatment of calcific tumors” (The Dow Chemical Company, priority 1990, dated 1994).

Turning to `O=P(O)(O)CN(CCO)CP(=O)(O)O.[153Sm+3]`, the “localization of radioactivity in the liver” value in series [1] was “a significant portion of the radioactivity localized in the liver”.

With `O=P(O)(O)CN(CCN(CP(=O)(O)O)CP(=O)(O)O)CP(=O)(O)O.[166Ho+3]` [Example 16], in series [2], the “% Dose in Blood” value came out at 0.03 % Dose, the “% Dose in Kidneys” value was determined as 0.26 % Dose, the “% Dose in Liver” value was 0.05 % Dose and the “% Dose in Muscle” value was determined as 0.10 % Dose. In addition, the “% Dose in Skeleton” value in series [2] is 48 % Dose. For the same molecule, in series [2] (ratio of percent dose per gram), the Bone/Blood was found to be 1114 and the Bone/Muscle turned out to be 2292. Besides, in series [3], the additional survival amounted to 9 months and the “survival compared with usual expected life” value is on record as “greater than the usual expected life of a dog with osteosarcoma”.
